Here are results for four molecules from ChEMBL document CHEMBL1921687, “(2-Benzyl-2,3,4,5-tetrahydro-1H-pyrido[4,3-b]indol-8-yl)-acetic acid: an aldose reductase inhibitor and antioxidant of zwitterionic nature” (Bioorg Med Chem, 2011).

A word on the IC50: it is the concentration needed to halve the response being measured. A low value points to inhibition by little substance.

Active and inactive are the calls of the source. The calls are words filed in the database; no cut-off is given here.

Assay [1] relates to Erythrocyte. Briefly: Antioxidant activity in Wistar rat erythrocytes assessed as prolongation of initial inhibition period-lag phase of t-BuOOH-induced hemolysis at 10 mM preincubated for 30 mins before induction measured up to 5 hrs by spectrophotometry. Format: functional, cell-based.
The subject of assay [2] is Erythrocyte. Nature of the assay: Antioxidant activity in Wistar rat erythrocytes assessed as prolongation of initial inhibition period-lag phase of AAPH-induced hemolysis at 100 uM preincubated for 30 mins before induction measured up to 5 hrs by spectrophotometry. Format: functional, cell-based.
The test system of assay [3] is Erythrocyte. Briefly: Antioxidant activity in Wistar rat erythrocytes assessed as prolongation of initial inhibition period-lag phase of t-BuOOH-induced hemolysis at 100 uM preincubated for 30 mins before induction measured up to 5 hrs by spectrophotometry. Type of assay: functional, cell-based.
Assay [4] concerns Erythrocyte. Briefly: Antioxidant activity in Wistar rat erythrocytes assessed as prolongation of initial inhibition period-lag phase of t-BuOOH-induced hemolysis at 2.5 uM preincubated for 30 mins before induction measured up to 5 hrs by spectrophotometry. Type of assay: functional, cell-based.
Assay [5] has as its system Erythrocyte. Nature of the assay: Antioxidant activity in Wistar rat erythrocytes assessed as prolongation of initial inhibition period-lag phase of t-BuOOH-induced hemolysis at 100 uM treated 30 mins after induction measured up to 5 hrs by spectrophotometry. Format: functional, cell-based.
For assay [6], the system named is Rattus norvegicus. Briefly: Inhibition of sorbitol accumulation in streptozotocin-induced diabetic rat erythrocytes at 25 mg/kg intra-gastrically bid for 4 days followed by single dose on 5th day measured after 3 hrs final dose by resazurin reduction assay. Type of assay: functional, organism-based. Also on record: dose 25 mg/kg. Background: Resazurin is reduced to fluorescent resorufin, in cell work by metabolically active cells.

Assay [7] has as its system Rattus norvegicus. Briefly: Antidiabetic activity in streptozotocin-induced diabetic rat assessed as reduction in blood glucose level at 25 mg/kg intra-gastrically administered bid for 4 days followed by single dose on 5th day measured after 3 hrs final dose. Type of assay: functional, organism-based. Also on record: dose 25 mg/kg.
Assay [8] has as its target Aldo-keto reductase family 1 member B1 (Homo sapiens, UniProt P15121). Nature of the assay: Inhibition of aldose reductase.

`NCCC(=O)N[C@@H](Cc1c[nH]cn1)C(=O)O`: the result in the assay with Erythrocyte [1] was Active.

Turning to `Cc1c(C)c2c(c(C)c1O)CCC(C)(C(=O)O)O2` (centres undefined), the outcome with Erythrocyte [2] was Active.

`COc1ccc2[nH]cc(CCNC(C)=O)c2c1`: the outcome in the assay on Erythrocyte [3] was inactive.

Turning to `O=C(O)Cc1ccc2[nH]c3c(c2c1)CN(Cc1ccccc1)CC3`, the outcome in the assay with Erythrocyte [2] and in the assay on Erythrocyte [4] was Active. Moreover, the outcome in the assay with Erythrocyte [5] and in the assay on Rattus norvegicus [7] was inactive. The inhibition result with Rattus norvegicus [6] is “Active”. Further, it took 18.2 µM to reach half-maximal inhibition in assay [8] (IC50).
